Measured values: PubChem BioAssay (NCI)
Where “and” joins values, the source holds several entries; their conditions need not be identical. Equal values may be shown once.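 Where inhibition never reached the appropriate level, the endpoint shown equals the highest concentration tested. Otherwise, values were interpolated linearly from a five-concentration, 48-hour dose response in 96-well plates. GI50: concentration for 50% inhibition of growth. TGI is the concentration that stops growth completely.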

How the values were obtained:
Assay in all cases: growth of human tumour cells (NCI), 48 h
NCI/ADR-RES ovarian = tested on: NCI/ADR-RES ovarian
SW-620 colon = tested on: SW-620 colon
NCI-H23 lung = tested on: NCI-H23 lung
T-47D breast = tested on: T-47D breast
786-0 renal = tested on: 786-0 renal
HCC-2998 colon = tested on: HCC-2998 colon
MDA-MB-231 breast = tested on: MDA-MB-231 breast
LOX IMVI melanoma = tested on: LOX IMVI melanoma
SK-MEL-28 melanoma = tested on: SK-MEL-28 melanoma
MOLT-4 leukemia = tested on: MOLT-4 leukemia

Structure (SMILES) | GI50 (NCI/ADR-RES ovarian) | TGI (NCI/ADR-RES ovarian) | GI50 (SW-620 colon) | TGI (SW-620 colon) | GI50 (NCI-H23 lung) | TGI (NCI-H23 lung) | GI50 (T-47D breast) | TGI (T-47D breast) | GI50 (786-0 renal) | TGI (786-0 renal) | GI50 (HCC-2998 colon) | TGI (HCC-2998 colon) | GI50 (MDA-MB-231 breast) | TGI (MDA-MB-231 breast) | GI50 (LOX IMVI melanoma) | TGI (LOX IMVI melanoma) | GI50 (SK-MEL-28 melanoma) | TGI (SK-MEL-28 melanoma) | GI50 (MOLT-4 leukemia) | TGI (MOLT-4 leukemia)
CN(C)CCOc1ccc(-c2cc(-c3ccc4c(c3)CC/C4=N\O)c(-c3ccncc3)o2)cc1 | 5.05 µM | 11 µM | 1.92 µM | 5.45 µM | 3.21 µM | 7.12 µM | 4.66 µM | 9.62 µM | 3.55 µM | 7.75 µM | 5.5 µM | 9.5 µM | 3.34 µM | 7.19 µM | 1.66 µM | 5.63 µM | 0.111 µM | 3.71 µM | 3.86 µM | 10.3 µM
COc1cc2c(cc1O)C(c1cc(O)c(O)c(OC)c1)C(O)(C(=O)O)C(CO)C2O (stereo not given) | – | > 100 µM | – | 76.5 µM | – | > 100 µM | – | > 100 µM | – | 30.5 µM | – | > 100 µM | – | > 100 µM | – | 33.3 µM | – | > 100 µM | – | 44.3 µM
O=Nc1c(O)c2ccccc2c2ccccc12 | 0.387 µM | 2.95 µM | 1.2 µM | 3.19 µM | 0.464 µM | 3.86 µM | 1.32 µM | 3.57 µM | 2.84 µM | 7.04 µM | 1.91 µM | 3.7 µM | 0.849 µM | 5.25 µM | 0.294 µM | 1.06 µM | 1.68 µM | 3.07 µM | 2.13 µM | > 100 µM
Cc1cc(O)cc(C)c1/C=C/c1cncc(C(=O)OC(C)(C)C)c1 | 14.6 µM | > 25 µM | 20.2 µM | > 25 µM | > 20 µM | > 25 µM | 10.7 µM | > 25 µM | 19.1 µM | > 25 µM | > 25 µM | > 25 µM | 14 µM | > 25 µM | 16 µM | > 25 µM | 17.9 µM | > 25 µM | 15 µM | > 25 µM
O=C(c1ccccc1O)c1[nH]c(Cl)c(Cl)c1-n1c(C(=O)c2ccccc2O)cc(Cl)c1Cl | 0.669 µM and 0.456 µM | 12.9 µM and 11.2 µM | 0.869 µM and 0.716 µM | 13.2 µM and 12.7 µM | 0.418 µM and 0.409 µM | 6.8 µM and 11.7 µM | 0.36 µM and 0.46 µM | 3.34 µM and 11.2 µM | 2.11 µM and 1.73 µM | 11.2 µM and 7.99 µM | 0.994 µM and 0.931 µM | 12.7 µM and 11.6 µM | 1.07 µM and 0.354 µM | 5.87 µM and 2.61 µM | 2.72 µM and 2.48 µM | 10.6 µM and 10.7 µM | 0.844 µM and 0.529 µM | 12.3 µM and 11.3 µM | 1.7 µM and 0.798 µM | 14.4 µM and 5.74 µM
C#C/C=C/CC1OC(C(Br)CC)CC(Br)C2CC1O2 (stereo not given) | – | > 100 µM | – | > 100 µM | – | > 100 µM | – | > 100 µM | – | 24.8 µM | – | > 100 µM | – | > 100 µM | – | 3.39 µM | – | > 100 µM | – | > 100 µM
CC(=O)c1ccc2c(c1)N(CCCN(C)C)c1ccccc1S2 | 13.6 µM | 28.3 µM | 16.5 µM | 31.8 µM | 17.1 µM | 44.4 µM | 16.6 µM | 39.6 µM | 12 µM | 25 µM | 14.4 µM | 27.6 µM | 11.1 µM | 24.8 µM | 12.4 µM | 25.4 µM | 16.2 µM | 32 µM | 16.8 µM | 41.2 µM
CCN(Cc1cccc(F)c1F)c1ccc(CO)c(Cl)c1 | 17.5 µM | 52.2 µM | 0.554 µM | 18.1 µM | 13.6 µM | 51.6 µM | 0.07 µM | 0.414 µM | 13.6 µM | 32.2 µM | 5.09 µM | 24.6 µM | 16.1 µM | 36.1 µM | 15.8 µM | 30.7 µM | 14 µM | 30.1 µM | 19.8 µM | 49.9 µM
O=c1cc(O)c2c(O)cc(O)cc2o1 | – | > 100 µM | – | > 100 µM | – | > 100 µM | – | > 100 µM | – | > 100 µM | – | > 100 µM | – | > 100 µM | – | > 100 µM | – | > 100 µM | – | > 100 µM
Nc1cc2nc3ccccc3oc-2cc1=O | 9.16 µM | > 88.9 µM | 1.91 µM | 5.08 µM | 0.811 µM | 3.56 µM | 14.9 µM | > 100 µM | 20.7 µM | > 83.4 µM | 4.34 µM | 17.4 µM | 22.9 µM | > 100 µM | 0.606 µM | 2.23 µM | 1.79 µM | 3.45 µM | 10.1 µM | > 63.2 µM
CN(C)c1ccc(/C=N/NC(=O)c2cccc3ccccc23)c(Cl)c1 | 1.02 µM | > 100 µM | 0.578 µM | > 100 µM | 7.51 µM | > 100 µM | 2.95 µM | > 100 µM | 5.87 µM | > 100 µM | 38.5 µM | > 100 µM | 11.5 µM | > 100 µM | 1.86 µM | > 100 µM | 3.5 µM | > 100 µM | 2.31 µM | > 100 µM
COc1ccc2nccc(/C=C/c3ccnc4ccc(OC)cc34)c2c1 | > 100 µM | > 100 µM | 39.8 µM | > 100 µM | > 100 µM | > 100 µM | 43.8 µM | > 87.3 µM | > 100 µM | > 100 µM | > 100 µM | > 100 µM | > 41.5 µM | > 61.6 µM | 69.3 µM | > 100 µM | 24.6 µM | 73.8 µM | > 55.1 µM | > 100 µM
O=C(Nc1cccc(-n2cc(-c3ccncc3)c(-c3ccc(O)c(Cl)c3)n2)c1)c1ccc(Cl)c(Cl)c1 | 5.26 µM | 65.5 µM | 3.89 µM | > 100 µM | 15 µM | > 100 µM | 5.36 µM | > 100 µM | 5.49 µM | 94.3 µM | 40.6 µM | > 100 µM | 1.52 µM | 8.58 µM | 7.21 µM | > 100 µM | 3.45 µM | 19.4 µM | 7.19 µM | > 100 µM
